Data from patent US6737383B1, “Herbicidal oxadiazolidines” (priority 1999, dated 2004).

Key:
[1] = test system: cocklebur; assay: Test C postemergence cocklebur; type: in vivo, Xanthium strumarium; conditions: 0 to 100 scale, 0 no effect, 100 complete control
Method: (§1) Compounds evaluated in this test were formulated in a non-phytotoxic solvent mixture which included a surfactant and applied to plants that were grown for various periods of time before treatment (postemergence application). A mixture of sandy loam soil and greenhouse potting mix in a 60:40 ratio was used for the postemergence test.
(§2) Plantings of these crops and weed species were adjusted to produce plants of appropriate size for the postemergence test. All plant species were grown using normal greenhouse practices. Crop and weed species include arrowleaf sida (Sida rhombifolia), barnyardgrass (Echinochloa crus-galli), cocklebur (Xanthium strumarium), common ragweed (Ambrosia elatior), corn (Zea mays), cotton (Gossypium hirsutum), eastern black nightshade (Solanum ptycanthum), fall panicum (Panicum dichotomiflorum), field bindweed (Convolvulus arvensis), giant foxtail (Setaria faberii), hairy beggarticks (Bidens pilosa), ivyleaf morningglory (Ipomoea hederacea), johnsongrass (Sorghum halepense), ladysthumb smartweed (Polygonum persicaria), lambsquarters (Chenopodium album), large crabgrass (Digitaria sanguinalis), purple nutsedge (Cyperus rotundus), redroot pigweed (Amaranthus retroflexus), soybean (Glycine max), surinam grass (Brachiaria decumbens), velvetleaf (Abutilon theophrasti) and wild poinsettia (Euphorbia heterophylla).
(§3) Treated plants and untreated controls were maintained in a greenhouse for approximately 14, to 21 days, after which all treated plants were compared to untreated controls and visually evaluated. Plant response ratings, summarized in Table C, were based upon a 0 to 100 scale where 0 was no effect and 100 was complete control. A dash response (−) means no test result.

[2] = test system: hairy beggarticks; assay: Test C postemergence hairy beggarticks; type: in vivo, Bidens pilosa; conditions: 0 to 100 scale, 0 no effect, 100 complete control
Method: as §1, §2, §3

[3] = test system: Alexandergrass; assay: Test D Alexandergrass; type: in vivo, Brachiaria plantaginea; conditions: Preemergence, 0 to 100 scale
How it was run: (§4)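 Greenhouse pots, seeds in sandy loam; compounds formulated in non-phytotoxic solvent with surfactant; preemergence treatments went on the soil surface within one day of planting. Injury rated visually 14 to 21 days after application on a 0 (none) to 100 (complete control) scale.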

[4] = test system: bermuda-grass; assay: Test D bermudagrass; type: in vivo, Cynodon dactylon; conditions: Preemergence, 0 to 100 scale
How it was run: as §4

[5] = test system: common pursiane; assay: Test D common purslane; type: in vivo, Portulaca oleracea
How it was run: as §4

[6] = test system: common groundsel; assay: Test D common groundsel; type: in vivo, Senecio vulgaris; conditions: Preemergence, 0 to 100 scale
How it was run: as §4

[7] = test system: guineagrass; assay: Test D guineagrass; type: in vivo, Panicum maximum; conditions: Preemergence, 0 to 100 scale
How it was run: as §4

[8] = test system: itchgrass; assay: Test D itchgrass; type: in vivo, Rottboellia exaltata; conditions: Preemergence, 0 to 100 scale
How it was run: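 Scoring used a 0–100 visual injury scale, with 0 meaning no effect and 100 complete control, assessed 14–21 days after application alongside untreated pots. Preemergence treatments went onto sandy loam surfaces of separately potted seeds within a day of sowing.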

[9] = test system: Johnson grass; assay: Test D Johnson grass; type: in vivo, Sorghum halepense; conditions: Preemergence, 0 to 100 scale
How it was run: as §4

[10] = test system: pitted morningglory; assay: Test D pitted morningglory; type: in vivo, Ipomoea lacunosa; conditions: Preemergence, 0 to 100 scale
How it was run: as §4

[11] = test system: purple nutsedge; assay: Test D purple nutsedge; type: in vivo, Cyperus rotundus; conditions: Preemergence, 0 to 100 scale
How it was run: as §4

[12] = test system: sandbur; assay: Test D sandbur; type: in vivo, Cenchrus echinatus; conditions: Preemergence, 0 to 100 scale
How it was run: as §4

[13] = test system: Spanishneedles; assay: Test D Spanishneedles; type: in vivo, Bidens bipinnata; conditions: Preemergence, 0 to 100 scale
How it was run: as §4

[14] = test system: tall mallow; assay: Test D tall mallow; type: in vivo, Malva sylvestris; conditions: Preemergence, 0 to 100 scale
How it was run: as §4

[15] = Rate 16 g/ha, 0 no injury, 100 complete control
[16] = Rate 32 g/ha, 0 no injury, 100 complete control
[17] = Rate 64 g/ha, 0 no injury, 100 complete control
[18] = Rate 125 g/ha, 0 no injury, 100 complete control

CC(C)N(C(=O)n1oc(=O)n(C(C)C)c1=O)c1ccc(F)cc1F [Compound 109]
Plant response rating, Cocklebur ([1]; Rate 140 g/ha): 30
Plant response rating, Cocklebur ([1]; Rate 280 g/ha): 30
Plant response rating, Cocklebur ([1]; Rate 560 g/ha): 60
Plant response rating H. beggarticks ([2]; Rate 280 g/ha): 5
Plant response rating H. beggarticks ([2]; Rate 560 g/ha): 70
Plant response rating H. beggarticks ([2]; Rate 1120 g/ha): 85
Plant response rating, Alexandergrass [3, 15]: 40
Plant response rating, Alexandergrass [3, 16]: 90
Plant response rating, Alexandergrass [3, 17]: 98
Plant response rating, Alexandergrass [3, 18]: 100
Plant response rating, Alexandergrass ([3]; Rate 250 g/ha): 100
Plant response rating, Alexandergrass ([3]; Rate 500 g/ha): 100
Plant response rating, Bermudagrass [4, 15]: 98
Plant response rating, Bermudagrass [4, 16]: 100
Plant response rating, Bermudagrass [4, 17]: 100
Plant response rating, Bermudagrass [4, 18]: 100
Plant response rating, Bermudagrass ([4]; Rate 250 g/ha): 100
Plant response rating, Bermudagrass ([4]; Rate 500 g/ha): 100
Plant response rating, C. purslane ([5]; Rate 16 g/ha; Preemergence; 0 to 100 scale, 0 no injury, 100 complete control): 0
Plant response rating, C. purslane ([5]; Rate 32 g/ha; Preemergence; 0 to 100 scale, 0 no injury, 100 complete control): 0
Plant response rating, C. purslane ([5]; Rate 64 g/ha, Preemergence; 0 to 100 scale, 0 no injury, 100 complete control): 0
Plant response rating, C. purslane ([5]; Rate 125 g/ha, Preemergence; 0 to 100 scale, 0 no injury, 100 complete control): 0
Plant response rating, C. purslane ([5]; Rate 250 g/ha; Preemergence; 0 to 100 scale): 0
Plant response rating, C. purslane ([5]; Rate 500 g/ha, Preemergence; 0 to 100 scale): 55
Plant response rating, C. purslane ([5]; Rate 500 g/ha; Preemergence; 0 to 100 scale): 0
Plant response rating, Com. groundsel [6, 15]: 0
Plant response rating, Com. groundsel [6, 16]: 0
Plant response rating, Com. groundsel [6, 17]: 0
Plant response rating, Com. groundsel [6, 18]: 0
Plant response rating, Com. groundsel ([6]; Rate 250 g/ha): 0
Plant response rating, Com. groundsel ([6]; Rate 500 g/ha): 0
Plant response rating, Guineagrass [7, 15]: 90
Plant response rating, Guineagrass [7, 16]: 100
Plant response rating, Guineagrass [7, 17]: 100
Plant response rating, Guineagrass [7, 18]: 100
Plant response rating, Guineagrass ([7]; Rate 250 g/ha): 100
Plant response rating, Guineagrass ([7]; Rate 500 g/ha): 100
Plant response rating, Itchgrass [8, 15]: 0
Plant response rating, Itchgrass [8, 16]: 65
Plant response rating, Itchgrass [8, 17]: 75
Plant response rating, Itchgrass [8, 18]: 75
Plant response rating, Itchgrass ([8]; Rate 250 g/ha): 100
Plant response rating, Itchgrass ([8]; Rate 500 g/ha): 100
Plant response rating Johnsongrass [9, 15]: 0
Plant response rating Johnsongrass [9, 16]: 0
Plant response rating Johnsongrass [9, 17]: 75
Plant response rating Johnsongrass [9, 18]: 98
Plant response rating Johnsongrass ([9]; Rate 250 g/ha): 100
Plant response rating Johnsongrass ([9]; Rate 500 g/ha): 100
Plant response rating, P. morninglory [10, 15]: 0
Plant response rating, P. morninglory [10, 16]: 0
Plant response rating, P. morninglory [10, 17]: 0
Plant response rating, P. morninglory [10, 18]: 65
Plant response rating, P. morninglory ([10]; Rate 250 g/ha): 85
Plant response rating, P. morninglory ([10]; Rate 500 g/ha): 100
Plant response rating, Purple nutsedge [11, 15]: 0
Plant response rating, Purple nutsedge [11, 16]: 0
Purple nutsedge plant response rating [11, 17]: 40
Purple nutsedge plant response rating [11, 18]: 40
Plant response rating, Purple nutsedge ([11]; Rate 250 g/ha): 75
Plant response rating, Purple nutsedge ([11]; Rate 500 g/ha): 85
Plant response rating, Sandbur [12, 15]: 0
Plant response rating, Sandbur [12, 16]: 0
Sandbur plant response rating [12, 17]: 98
Sandbur plant response rating [12, 18]: 100
Plant response rating, Sandbur ([12]; Rate 250 g/ha): 100
Plant response rating, Sandbur ([12]; Rate 500 g/ha): 100
Plant response rating, Spanishneedles [13, 15]: 0
Plant response rating, Spanishneedles [13, 16]: 10
Spanishneedles plant response rating [13, 17]: 10
Spanishneedles plant response rating [13, 18]: 10
Plant response rating, Spanishneedles ([13]; Rate 500 g/ha): 30
Plant response rating, Tall Mallow [14, 15]: 0
Plant response rating, Tall Mallow [14, 16]: 20
Tall Mallow plant response rating [14, 17]: 60
Tall Mallow plant response rating [14, 18]: 85
Plant response rating, Tall Mallow ([14]; Rate 250 g/ha): 98
Plant response rating, Tall Mallow ([14]; Rate 500 g/ha): 100
